pIC50: −log10 of the molar value.

This experiment relates to IL-2 production in a Human Jurkat Cell Line. Nature of the experiment: Inhibition of IL-2 production in PHA-stimulated Jurkat cells (IL-2 ELISA). Format: cell-based. To be noted: Homo sapiens, Jurkat, 20 h, read-out: IC50 (concentration at which IL-2 release is inhibited by 50%). Here is the method:
Jurkat cells (ATCC, Cat# TIB-152) were grown in RPMI1640 medium (ATCC, Cat# 30-2001) containing 10% of FBS (ATCC, Cat# 30-2020). For compound screening, Jurkat cells were plated in 96-well plates at a density of 0.5 million cells per well in RPMI1640 medium containing 1% of FBS. Then, various concentrations of each test compound were added to the cell plates followed by addition of PHA (Sigma, Cat# L-9017) at a final concentration of 2.5 μg/ml to stimulate IL-2 production. Cells were then incubated at 37° C. (+5% CO2) for 20 hours before ELISA assay. After 20 hours incubation, cell plates were centrifuged at 500-800 g for 5 minutes and the supernatants was collected for IL-2 detection using the human IL-2 ELISA kit purchased from Cell Sciences (Cat# 851.500.020). The ELISA assay for IL-2 production was done in 96-well plates using a protocol provided by Cell Sciences.
The IC50 (i.e., the concentration at which IL-2 release is inhibited by 50%) was determined and the results are shown in the Table. […] The designation “A” means an IC50 less than 0.010 μM; the designation B means an IC50 between 0.010 and 1.0 μM; and the designation “C” mean an IC50 greater than 1 μM.
A general note: ELISA stands for enzyme-linked immunosorbent assay.
Turning to `N#CC(=Cc1ccc(-n2ccc(C(F)(F)F)n2)cc1)C(=O)c1cccc(F)c1F` [Compound 38, 2-(2,3-Difluoro-benzoyl)-3-[4-(3-trifluoromethyl-pyrazol-1-yl)-phenyl]-acrylonitrile], the pIC50 is under 6.00.
Then `N#CC(=Cc1ccc(-n2ccc(-c3ccccc3)n2)cc1)C(=O)c1cccc(F)c1F` [Compound 35, 2-(2,3-Difluoro-benzoyl)-3-[4-(3-phenyl-pyrazol-1-yl)-phenyl]-acrylonitrile], with under 6.00; and `N#CC(=Cc1ccc(-n2ccc(C(F)(F)F)n2)cc1)c1ccc(F)cc1F` [Compound 16, 2-(2,4-Difluoro-phenyl)-3-[4-(3-trifluoromethyl-pyrazol-1-yl)-phenyl]-acrylonitrile], with under 6.00.
With `N#CC(=Cc1ccc(-n2ccc(C(F)(F)F)n2)cc1)C(=O)c1ccc(F)cc1F` [Compound 37, 2-(2,4-Difluoro-benzoyl)-3-[4-(3-trifluoromethyl-pyrazol-1-yl)-phenyl]-acrylonitrile] the figure was under 6.00; with `Cc1cc(C(F)(F)F)n(-c2ccc(C=C(C#N)c3ccc(F)cc3F)cc2)n1` [Compound 19, 2-(2,4-Difluoro-phenyl)-3-[4-(3-methyl-5-trifluoromethyl-pyrazol-1-yl)-phenyl]-acrylonitrile], 6.00 to 8.00.
With `N#CC(=Cc1ccc(-n2nc(C(F)(F)F)cc2C(F)(F)F)cc1)c1ccccc1F` [Compound 6, 3-[4-(3,5-Bis-trifluoromethyl-pyrazol-1-yl)-phenyl]-2-(2-fluoro-phenyl)-acrylonitrile] the figure was 6.00 to 8.00.

The record behind these values is patent US7705029B2 (Synta Pharmaceuticals Corp., priority 2004, dated 2010).
